Values joined by “and” are separate entries in the source; they are usually repeats but may differ in a detail not shown here. Equal values may be shown once. Toxic doses and inconclusive results are not listed.
Tested on: P388 leukemia ip, CD2F1 mice, survival T/C
Assay: NCI In Vivo Anticancer Drug Screen. Data for tumor model P388 Leukemia (intraperitoneal) in CD2F1 (CDF1) mice
Settings: endpoint: median survival time, higher = longer survival
Procedure, shortened: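 Mice carrying the transplanted tumor received test compound or vehicle. Survival was recorded in each group, and the value is the treated-group measurement divided by that of the vehicle-treated control group.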

[1] = dose: 60.0 mg/kg/injection, schedule: Q01DX005 (ip), vehicle: Klucel (hydroxypropylcellulose) (HPC)
[2] = dose: 100.0 mg/kg/injection, schedule: Q04DX002 (ip), vehicle: saline with Tween-80
[3] = dose: 50.0 mg/kg/injection, schedule: Q01DX005 (ip), vehicle: Klucel (hydroxypropylcellulose) (HPC)
[4] = dose: 100.0 mg/kg/injection, schedule: Q01DX005 (ip), vehicle: Klucel (hydroxypropylcellulose) (HPC)
[5] = dose: 200.0 mg/kg/injection, schedule: Q01DX005 (ip), vehicle: Klucel (hydroxypropylcellulose) (HPC)
[6] = dose: 100.0 mg/kg/injection, schedule: Q01DX009 (ip), vehicle: saline
[7] = dose: 200.0 mg/kg/injection, schedule: Q01DX009 (ip), vehicle: saline
[8] = dose: 400.0 mg/kg/injection, schedule: Q01DX009 (ip), vehicle: saline
[9] = dose: 50.0 mg/kg/injection, schedule: Q01DX009 (ip), vehicle: saline
[10] = dose: 50.0 mg/kg/injection, schedule: Q01DX005 (ip), vehicle: saline with Tween-80
[11] = dose: 100.0 mg/kg/injection, schedule: Q01DX005 (ip), vehicle: saline with Tween-80
[12] = dose: 200.0 mg/kg/injection, schedule: Q01DX005 (ip), vehicle: saline with Tween-80

`C=CC(=O)C(C(=O)OCC)=P(c1ccccc1)(c1ccccc1)c1ccccc1` was tested, and the T/C [1] was 98 % of control, the T/C (dose: 120.0 mg/kg/injection, schedule: Q01DX005 (ip), vehicle: Klucel (hydroxypropylcellulose) (HPC)) was 97 % of control and the T/C (dose: 240.0 mg/kg/injection, schedule: Q01DX005 (ip), vehicle: Klucel (hydroxypropylcellulose) (HPC)) was 101 % of control.
In the case of `CC(=O)OCC1OC(Nc2[nH]c(=O)n(C)c(=O)c2N=O)C(OC(C)=O)C(OC(C)=O)C1OC(C)=O` (configuration not stated), the T/C [2] is reported as 104 % of control, the T/C (dose: 200.0 mg/kg/injection, schedule: Q04DX002 (ip), vehicle: saline with Tween-80) is reported as 103 % of control and the T/C (dose: 400.0 mg/kg/injection, schedule: Q04DX002 (ip), vehicle: saline with Tween-80) is reported as 102 % of control.
`CCC(C)NS(=O)(=O)c1ccccc1C(=O)OC` (configuration not stated) was tested, and the T/C [3] was 99 % of control, the T/C [4] was 99 % of control and the T/C [5] was 97 % of control.
For `O=c1[nH]cc(B(O)O)c(=O)[nH]1`, the T/C [6] was 106 % of control, the T/C [7] was 113 % of control and the T/C [8] was 113 % of control.
With `OCCN(CCO)CC(O)COc1cccc2ccccc12` (configuration not stated) the T/C (dose: 12.5 mg/kg/injection, schedule: Q01DX009 (ip), vehicle: saline) was 98 % of control and 116 % of control, the T/C (dose: 25.0 mg/kg/injection, schedule: Q01DX009 (ip), vehicle: saline) was 110 % of control and 96 % of control and the T/C [9] was 103 % of control and 107 % of control. For the same compound, the T/C [6] was 104 % of control and 97 % of control and the T/C [7] was 110 % of control and 115 % of control.
`Cc1nc2c(cnn2C)c(=O)n1-c1ccccc1Cl` was tested, and the T/C [3] was 103 % of control, the T/C [4] was 95 % of control and the T/C [5] was 98 % of control.
In the case of `O=c1[nH]c(=S)[nH]cc1-c1ccc(Cl)c(Cl)c1`, the T/C (dose: 50.0 mg/kg/injection, schedule: Q01DX009 (ip), vehicle: suspension in saline) is reported as 105 % of control, the T/C (dose: 100.0 mg/kg/injection, schedule: Q01DX009 (ip), vehicle: suspension in saline) is reported as 104 % of control and the T/C (dose: 200.0 mg/kg/injection, schedule: Q01DX009 (ip), vehicle: suspension in saline) is reported as 106 % of control.
For `CC(c1ccc(Cl)cc1)N(CCN(C)C)c1ccccn1` (configuration not stated), the T/C (dose: 15.0 mg/kg/injection, schedule: Q01DX005 (ip), vehicle: Klucel (hydroxypropylcellulose) (HPC)) was 103 % of control, the T/C (dose: 30.0 mg/kg/injection, schedule: Q01DX005 (ip), vehicle: Klucel (hydroxypropylcellulose) (HPC)) was 104 % of control and the T/C [1] was 111 % of control and 95 % of control.
In the case of `OCC1OC(Oc2ccc(O)cc2)C(O)C(O)C1O` (configuration not stated), the T/C (dose: 4.5 mg/kg/injection, schedule: Q01DX009 (ip), vehicle: Klucel (hydroxypropylcellulose) (HPC)) is reported as 97 % of control, the T/C (dose: 9.0 mg/kg/injection, schedule: Q01DX009 (ip), vehicle: Klucel (hydroxypropylcellulose) (HPC)) is reported as 90 % of control and the T/C (dose: 18.0 mg/kg/injection, schedule: Q01DX009 (ip), vehicle: Klucel (hydroxypropylcellulose) (HPC)) is reported as 90 % of control. For the same compound, the T/C (dose: 36.0 mg/kg/injection, schedule: Q01DX009 (ip), vehicle: Klucel (hydroxypropylcellulose) (HPC)) was 98 % of control, the T/C [9] was 102 % of control and the T/C [6] was 102 % of control. The T/C [7] was 102 % of control and the T/C [8] was 106 % of control.
`CN(C)CCN1C(=O)C2C3CCC(C)(O3)C2C1=O` (configuration not stated) was tested, and the T/C (dose: 50.0 mg/kg/injection, schedule: Q01DX005 (ip), vehicle: saline) was 99 % of control, the T/C (dose: 100.0 mg/kg/injection, schedule: Q01DX005 (ip), vehicle: saline) was 104 % of control and the T/C (dose: 200.0 mg/kg/injection, schedule: Q01DX005 (ip), vehicle: saline) was 103 % of control.
For `c1cc2c3c(c1)c1cc4c(cc1c[n+]3CC2)OCO4`, the T/C (dose: 25.0 mg/kg/injection, schedule: Q01DX009 (ip), vehicle: other) was 153 % of control and the T/C (dose: 25.0 mg/kg/injection, schedule: Q01DX009 (ip), vehicle: water) was 91 % of control.
In the case of `O=C1c2sccc2C2C1N2C(=O)C(F)(F)F` (configuration not stated), the T/C [10] is reported as 95 % of control, the T/C [11] is reported as 98 % of control and the T/C [12] is reported as 104 % of control.
In the case of `CCOC(OCC)C(=O)OCC(=O)[C@]1(O)Cc2c(O)c3c(c(O)c2[C@@H](OC2CC(N)C(O)C(C)O2)C1)C(=O)c1c(OC)cccc1C3=O` (some centres not stated), the T/C (dose: 0.13 mg/kg/injection, schedule: Q03HX008 (ip), vehicle: saline) is reported as 111 % of control, the T/C (dose: 0.25 mg/kg/injection, schedule: Q03HX008 (ip), vehicle: saline) is reported as 117 % of control and the T/C (dose: 0.5 mg/kg/injection, schedule: Q01DX009 (ip), vehicle: saline) is reported as 160 % of control. For the same compound, the T/C (dose: 1.0 mg/kg/injection, schedule: Q01DX001 (ip), vehicle: saline) was 118 % of control, the T/C (dose: 1.0 mg/kg/injection, schedule: Q01DX009 (ip), vehicle: saline) was 173 % of control and the T/C (dose: 2.0 mg/kg/injection, schedule: Q01DX001 (ip), vehicle: saline) was 123 % of control. For the same compound, the T/C (dose: 2.0 mg/kg/injection, schedule: Q01DX009 (ip), vehicle: saline) was 245 % of control, the T/C (dose: 4.0 mg/kg/injection, schedule: Q01DX009 (ip), vehicle: saline) was 198 % of control and the T/C (dose: 4.0 mg/kg/injection, schedule: Q03HX008 (ip), vehicle: saline) was 168 % of control. For the same compound, the T/C (dose: 8.0 mg/kg/injection, schedule: Q03HX008 (ip), vehicle: saline) was 88 % of control, the T/C (dose: 16.0 mg/kg/injection, schedule: Q01DX001 (ip), vehicle: saline) was 170 % of control and the T/C (dose: 32.0 mg/kg/injection, schedule: Q01DX001 (ip), vehicle: saline) was 189 % of control. The T/C (dose: 64.0 mg/kg/injection, schedule: Q01DX001 (ip), vehicle: saline) was 87 % of control.
`C=C1CC2(CC3CC(C2C)C3(C)C)OC1=O` (configuration not stated) was tested, and the T/C (dose: 25.0 mg/kg/injection, schedule: Q04DX002 (ip), vehicle: saline) was 102 % of control, the T/C (dose: 50.0 mg/kg/injection, schedule: Q04DX002 (ip), vehicle: saline) was 100 % of control and the T/C (dose: 100.0 mg/kg/injection, schedule: Q04DX002 (ip), vehicle: saline) was 100 % of control and 90 % of control. For the same compound, the T/C (dose: 400.0 mg/kg/injection, schedule: Q04DX002 (ip), vehicle: saline) was 100 % of control.
`CCOC(=O)NOC1CCCCO1` (configuration not stated) was tested, and the T/C [9] was 91 % of control, the T/C [6] was 105 % of control and the T/C [7] was 104 % of control.
`CC1SC(C)SC(C(C)(C)O)S1` (configuration not stated) was tested, and the T/C [10] was 100 % of control, the T/C [11] was 100 % of control and the T/C [12] was 100 % of control.
`C1CC[N-]CC1.CC(=O)Nc1[c-]cccc1.CC(=O)O.[Pd+2]` was tested, and the T/C (dose: 25.0 mg/kg/injection, schedule: Q01DX005 (ip), vehicle: saline with Tween-80) was 112 % of control and 95 % of control, the T/C [10] was 107 % of control and 114 % of control and 119 % of control and the T/C [11] was 111 % of control.
`CCC(O)(C(=O)O)c1cc[n+](Cc2cnc3ccccc3c2)cc1C` (configuration not stated) was tested, and the T/C (dose: 12.5 mg/kg/injection, schedule: Q01DX005 (ip), vehicle: Klucel (hydroxypropylcellulose) (HPC)) was 96 % of control, the T/C (dose: 25.0 mg/kg/injection, schedule: Q01DX005 (ip), vehicle: Klucel (hydroxypropylcellulose) (HPC)) was 86 % of control and the T/C [3] was 100 % of control.
`C/C(=N/N=C(N)N)c1ccc(NC(=O)Nc2ccc(/C(C)=N/N=C(N)N)cc2)cc1` was tested, and the T/C (dose: 6.25 mg/kg/injection, schedule: Q01DX009 (ip), vehicle: water) was 151 % of control, the T/C (dose: 100.0 mg/kg/injection, schedule: Q04DX003 (ip), vehicle: saline with Tween-80) was 150 % of control and the T/C (dose: 150.0 mg/kg/injection, schedule: Q04DX003 (ip), vehicle: saline with Tween-80) was 118 % of control.
With `CC(=O)O.CC(=O)[O-].CC(=O)[O-].[Co+3].[NH-]CC[NH-].[NH-]CC[NH-]` the T/C [6] was 100 % of control.
`C/C(=N\N=C(\N)N1CCOCC1)c1ccc2c(c1)Cc1ccccc1-2` was tested, and the T/C [2] was 101 % of control.
`COc1cccc2c1C(=O)c1c(O)c3c(c(O)c1C2=O)CC(O)(C(C)=O)CC3OC1OC(C)C(O)C(N)C1O` (configuration not stated) was tested, and the T/C (dose: 3.13 mg/kg/injection, schedule: Q04DX003 (ip), vehicle: water) was 91 % of control, the T/C (dose: 6.25 mg/kg/injection, schedule: Q04DX003 (ip), vehicle: water) was 110 % of control and the T/C (dose: 12.5 mg/kg/injection, schedule: Q04DX003 (ip), vehicle: water) was 99 % of control. The T/C (dose: 25.0 mg/kg/injection, schedule: Q04DX003 (ip), vehicle: water) was 100 % of control and the T/C (dose: 50.0 mg/kg/injection, schedule: Q04DX003 (ip), vehicle: water) was 103 % of control.
`CCOC(=O)C(CC(=O)O)=C(c1ccccc1)c1ccccc1` was tested, and the T/C [9] was 107 % of control, the T/C [6] was 100 % of control and the T/C [7] was 107 % of control.
For `CCN1c2ccccc2Sc2cc(C=O)ccc21`, the T/C (dose: 50.0 mg/kg/injection, schedule: Q01DX009 (ip), vehicle: Klucel (hydroxypropylcellulose) (HPC)) was 91 % of control, the T/C (dose: 100.0 mg/kg/injection, schedule: Q01DX009 (ip), vehicle: Klucel (hydroxypropylcellulose) (HPC)) was 107 % of control and the T/C (dose: 200.0 mg/kg/injection, schedule: Q01DX009 (ip), vehicle: Klucel (hydroxypropylcellulose) (HPC)) was 101 % of control.

Source: PubChem BioAssay AID330 (DTP/NCI, 2004)
